Primed or numbered codes have the meaning given here. C(Alexa680) = cysteine labeled with Alexa680 (AlexaFluor680); PEG6′ = PEG6 spacer
Test system: target expressing cells previously incubated with the NbALFA×anti-Target Adaptor-Protein
Assay: FACS cell binding analysis of linear and cyclic ALFA-peptides (AlexaFluor680)
Format: cell-based
Settings: for binding to target expressing cells (AlexaFluor680 signal): 4 nM to 1024 nM peptide, 30 min at 4° C., after 100 nM NbALFA×anti-Target Adaptor-Protein; for binding on the controls: target-negative cells, pre-incubation with PBS or NbALFA×non-binder
Method: Cells were seeded in a 96-well microtiter plate (round button) to a final density of 2×10^5 and incubated in the presence of 100 nM NbALFA×anti-Target purified Adaptor-Protein (binds with one moiety to ALFA peptide and with the other moiety to cell presented target) or, as a negative control in the presence of 100 nM NbALFA×non-binder (binds with one moiety to the ALFA peptide and with the other moiety to a target which is not available in this experiment) or PBS for 30 min at 4° C. Cells were then washed and incubated with different concentrations (4 nM, 16 nM, 64 nM, 256 nM, and 1024 nM) of the linear [Ac(C-Alexa680)(PEG6)PSRLEEELRRRLTE-NH2] or cyclic [Ac(C-Alexa680)(PEG6)PSRLE(E)ELR(K)RLTE-NH2] ALFA peptide for another 30 min at 4° C. After rewashing, the cells were measured in FACS Canto II (BD Biosciences). AlexaFluor680 signal was used to detect the binding of ALFA peptides. Therefore, excitation Laser Line 633 nm was used to detect the AlexaFluor 680 signal.

Substance	binding to target expressing cells (AlexaFluor680 signal)	binding on the controls
Ac(C-Alexa680)(PEG6)PSRLE(E)ELR(K)RLTE-NH2 [cyclic ALFA peptide]	bind only to target expressing cells previously incubated with the NbALFA×anti-Target Adaptor-Protein	No binding
Ac(C-Alexa680)(PEG6)PSRLEEELRRRLTE-NH2 ({Ac-C(Alexa680)-PEG6′}-PSRLEEELRRRLTE-NH2) [linear ALFA peptide, linear ALFA-peptide conjugated to AlexaFluor680, reference compound]	bind only to target expressing cells previously incubated with the NbALFA×anti-Target Adaptor-Protein	No binding
